In publication PMC3856494, “Radiofluorination and biological evaluation of N-aryl-oxadiazolyl-propionamides as potential radioligands for PET imaging of cannabinoid CB2 receptors” (Organic and Medicinal Chemistry Letters, 2013):

Key:
[1] = In vitro radiochemical stability; type: physicochemical; settings: all selected media, 40°C, up to 90 min
Description: In vitro radiochemical stabilities of [^18F]1 and [^18F]2 were investigated in 0.9% NaCl solution, Dulbecco’s phosphate buffer, 0.01 M Tris–HCl (pH 7.4 at 21°C), and EtOH at 40°C for 90 min. Samples were taken at 15, 30, 60, and 90 min after incubation and analyzed by radio-TLC and radio-HPLC.

[2] = Ex vivo biodistribution (organ distribution) in mice; settings: i.v. 300 to 400 kBq, female CD1 mice
Description: (§1) Female CD1 mice (10 to 12 weeks old, 20 to 25 g) received an injection of 300 to 400 kBq of [^18F]1 or [^18F]2 with specific activities of >450 GBq/μmol in 200 μL of 0.9% NaCl/10% EtOH into the tail vein. The animals were anesthetized (CO2/O2 mixture) for blood and urine sampling and euthanized by luxation of the cervical spine at 5, 30, and 60 min after injection (p.i.) (n = 2 to 5 per time). The organs of interest were removed and weighed, and the activities were measured by γ counting using a calibrated γ counter Wallac Wizard 1470 (Perkin Elmer Inc., Waltham, MA, USA). The percentage of injected dose per gram of wet tissue (% ID/g wet weight) was calculated.

CB2R = CB2R (Mus musculus, UniProt P47936); design: species or system female CD1 mice; settings: female, CD1, mouse, in vivo
Chain of CB2R (P47936 whole entry): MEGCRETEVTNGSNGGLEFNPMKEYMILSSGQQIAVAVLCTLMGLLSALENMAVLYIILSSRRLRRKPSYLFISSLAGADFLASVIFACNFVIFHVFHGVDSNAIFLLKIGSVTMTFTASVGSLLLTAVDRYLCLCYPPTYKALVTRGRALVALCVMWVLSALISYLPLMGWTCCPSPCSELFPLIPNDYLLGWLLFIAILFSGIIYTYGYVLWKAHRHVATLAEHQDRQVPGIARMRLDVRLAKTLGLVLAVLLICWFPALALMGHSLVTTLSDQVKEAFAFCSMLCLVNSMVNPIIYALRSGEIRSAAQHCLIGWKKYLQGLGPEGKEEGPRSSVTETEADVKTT
Description: as §1
(3 mg/kg i.p. in 0.9% saline, 10 min before the injection of the radiotracer) at 60 min p.i. (n = 2 to 5). The unpaired two-tailed t test was used to compare the results between the groups. We considered differences to be significant at a p value <0.05.

[3] = Ex vivo metabolite studies (radio-HPLC of plasma and brain extracts); type: in vivo, CD1 mice; settings: mice
Description: [^18F]1 and [^18F]2 (100 to 150 MBq, 250 to 450 GBq/μmol in 150 μL NaCl 0.9%/10% EtOH) were injected via the tail vein in CD1 male mice (10 to 12 weeks old, 20 to 25 g). Blood and urine samples were obtained at 30 and 60 min p.i. (n = 3 per time point). Twofold extractions of plasma and brain samples (n = 3) were performed using ice-cold MeCN according to the standard protocol established in our group (see [47, 48]). Briefly, plasma samples were obtained by centrifugation of the blood at 4,000×g at 4°C for 10 min, and brain samples were homogenized in ice-cold 50 mM Tris–HCl (pH = 7.4). The samples were vortexed, incubated on ice, and centrifuged at 10,000×g for 3 min. Supernatants were collected, and the precipitates were re-dissolved in ice-cold MeCN for the second extraction. The supernatants from the two extractions were combined, concentrated under a gentle argon stream at 65°C, and analyzed by radio-TLC and gradient analytical HPLC (see ‘Radiochemistry’ section). Aliquots from each extraction supernatant and the precipitates were also taken and quantified by γ counting (Wallac Wizard 1470, Perkin Elmer Inc., Waltham, MA, USA) along with the respective aliquots of intact plasma samples and brain homogenates. A moderate recovery of radioactivity was obtained from plasma samples and brain homogenates (60% to 70%). Radiometabolites of [^18F]17 in the plasma, spleen, and brain were assessed at 30 and 60 min p.i.

CCn1c2ccccc2c2cc(NC(=O)CCc3nc(-c4ccc([18F])cc4Br)no3)ccc21 [[^18F]2]
intact tracer [1]: ≥ 98% | Radioactivity uptake, Adrenals, Control 5 min [2]: 7.67 ± 2.18 % ID/g | Radioactivity uptake, Adrenals, Control 30 min [2]: 5.38 ± 0.61 % ID/g | Radioactivity uptake, Adrenals, Control 60 min [2]: 2.44 ± 0.72 % ID/g | Radioactivity uptake, Bladder, Control 5 min [2]: 1.01 ± 0.29 % ID/g | Radioactivity uptake, Bladder, Control 30 min [2]: 2.02 ± 0.39 % ID/g | Radioactivity uptake, Bladder, Control 60 min [2]: 1.45 ± 0.57 % ID/g | Radioactivity uptake, Blood, Control 5 min [2]: 2.29 ± 0.48 % ID/g | Radioactivity uptake, Blood, Control 30 min [2]: 3.42 ± 0.39 % ID/g | Radioactivity uptake, Blood, Control 60 min [2]: 2.50 ± 0.42 % ID/g | Radioactivity uptake, Brain, Control 5 min [2]: 0.62 ± 0.22 % ID/g | Radioactivity uptake, Brain, Control 30 min [2]: 0.86 ± 0.34 % ID/g | Radioactivity uptake, Brain, Control 60 min [2]: 0.26 ± 0.07 % ID/g | Radioactivity uptake, Femur, Control 5 min [2]: 1.63 ± 0.93 % ID/g | Radioactivity uptake, Femur, Control 30 min [2]: 1.10 ± 0.03 % ID/g | Radioactivity uptake, Femur, Control 60 min [2]: 0.58 ± 0.11 % ID/g | Radioactivity uptake, Gonads, Control 5 min [2]: 1.14 ± 0.32 % ID/g | Radioactivity uptake, Gonads, Control 30 min [2]: 2.08 ± 0.03 % ID/g | Radioactivity uptake, Gonads, Control 60 min [2]: 2.29 ± 0.57 % ID/g | Radioactivity uptake, Heart, Control 5 min [2]: 3.42 ± 0.57 % ID/g | Radioactivity uptake, Heart, Control 30 min [2]: 2.32 ± 0.24 % ID/g | Radioactivity uptake, Heart, Control 60 min [2]: 1.45 ± 0.20 % ID/g | Radioactivity uptake, Kidney, Control 5 min [2]: 5.86 ± 0.96 % ID/g | Radioactivity uptake, Kidney, Control 30 min [2]: 5.90 ± 0.15 % ID/g | Radioactivity uptake, Kidney, Control 60 min [2]: 3.96 ± 1.25 % ID/g | Radioactivity uptake, Large intestine, Control 5 min [2]: 0.46 ± 0.06 % ID/g | Radioactivity uptake, Large intestine, Control 30 min [2]: 1.25 ± 0.30 % ID/g | Radioactivity uptake, Large intestine, Control 60 min [2]: 1.86 ± 0.36 % ID/g | Radioactivity uptake, Liver, Control 5 min [2]: 31.31 ± 9.91 % ID/g | Radioactivity uptake, Liver, Control 30 min [2]: 8.84 ± 0.83 % ID/g | Radioactivity uptake, Liver, Control 60 min [2]: 6.27 ± 0.68 % ID/g | Radioactivity uptake, Lung, Control 5 min [2]: 4.62 ± 0.21 % ID/g | Radioactivity uptake, Lung, Control 30 min [2]: 3.36 ± 0.02 % ID/g | Radioactivity uptake, Lung, Control 60 min [2]: 2.52 ± 0.60 % ID/g | Radioactivity uptake, Muscle, Control 5 min [2]: 1.00 ± 0.30 % ID/g | Radioactivity uptake, Muscle, Control 30 min [2]: 0.92 ± 0.15 % ID/g | Radioactivity uptake, Muscle, Control 60 min [2]: 0.70 ± 0.27 % ID/g | Radioactivity uptake, Pancreas, Control 5 min [2]: 2.04 ± 0.59 % ID/g | Radioactivity uptake, Pancreas, Control 30 min [2]: 1.71 ± 0.15 % ID/g | Radioactivity uptake, Pancreas, Control 60 min [2]: 0.82 ± 0.21 % ID/g | Radioactivity uptake, Plasma, Control 5 min [2]: 3.87 ± 0.90 % ID/g | Radioactivity uptake, Plasma, Control 30 min [2]: 6.82 ± 1.19 % ID/g | Radioactivity uptake, Plasma, Control 60 min [2]: 5.22 ± 0.73 % ID/g | Radioactivity uptake, Small intestine, Control 5 min [2]: 3.86 ± 2.64 % ID/g | Radioactivity uptake, Small intestine, Control 30 min [2]: 20.78 ± 3.28 % ID/g | Radioactivity uptake, Small intestine, Control 60 min [2]: 27.31 ± 2.44 % ID/g | Radioactivity uptake, Spleen, Control 5 min [2]: 10.42 ± 7.67 % ID/g | Radioactivity uptake, Spleen, Control 30 min [2]: 1.34 ± 0.10 % ID/g | Radioactivity uptake, Spleen, Control 60 min [2]: 0.68 ± 0.11 % ID/g | Radioactivity uptake, Stomach, Control 5 min [2]: 1.57 ± 1.18 % ID/g | Radioactivity uptake, Stomach, Control 30 min [2]: 2.09 ± 0.81 % ID/g | Radioactivity uptake, Stomach, Control 60 min [2]: 2.21 ± 0.43 % ID/g | Radioactivity uptake, Thymus, Control 5 min [2]: 2.30 ± 1.06 % ID/g | Radioactivity uptake, Thymus, Control 30 min [2]: 1.96 ± 0.22 % ID/g | Radioactivity uptake, Thymus, Control 60 min [2]: 1.04 ± 0.08 % ID/g | Radioactivity uptake, Adrenals, Blocking 60 min (CB2R; 3 mg/kg, 1 h): 3.34 ± 0.15 % ID/g | Radioactivity uptake, Bladder, Blocking 60 min (CB2R; 3 mg/kg, 1 h): 1.77 ± 0.16 % ID/g | Radioactivity uptake, Blood, Blocking 60 min (CB2R; 3 mg/kg, 1 h): 3.40 ± 0.21 % ID/g | Radioactivity uptake, Brain, Blocking 60 min (CB2R; 3 mg/kg, 1 h): 0.28 ± 0.03 % ID/g | Radioactivity uptake, Femur, Blocking 60 min (CB2R; 3 mg/kg, 1 h): 0.61 ± 0.09 % ID/g | Radioactivity uptake, Gonads, Blocking 60 min (CB2R; 3 mg/kg, 1 h): 1.97 ± 0.39 % ID/g | Radioactivity uptake, Heart, Blocking 60 min (CB2R; 3 mg/kg, 1 h): 1.53 ± 0.13 % ID/g | Radioactivity uptake, Kidney, Blocking 60 min (CB2R; 3 mg/kg, 1 h): 4.91 ± 1.51 % ID/g | Radioactivity uptake, Large intestine, Blocking 60 min (CB2R; 3 mg/kg, 1 h): 1.78 ± 0.23 % ID/g | Radioactivity uptake, Liver, Blocking 60 min (CB2R; 3 mg/kg, 1 h): 10.51 ± 1.10 % ID/g | Radioactivity uptake, Lung, Blocking 60 min (CB2R; 3 mg/kg, 1 h): 2.31 ± 0.19 % ID/g | Radioactivity uptake, Muscle, Blocking 60 min (CB2R; 3 mg/kg, 1 h): 0.70 ± 0.06 % ID/g | Radioactivity uptake, Pancreas, Blocking 60 min (CB2R; 3 mg/kg, 1 h): 1.02 ± 0.11 % ID/g | Radioactivity uptake, Plasma, Blocking 60 min (CB2R; 3 mg/kg, 1 h): 5.78 ± 0.07 % ID/g | Radioactivity uptake, Small intestine, Blocking 60 min (CB2R; 3 mg/kg, 1 h): 29.64 ± 5.10 % ID/g | Radioactivity uptake, Spleen, Blocking 60 min (CB2R; 3 mg/kg, 1 h): 0.74 ± 0.10 % ID/g | Radioactivity uptake, Stomach, Blocking 60 min (CB2R; 3 mg/kg, 1 h): 3.24 ± 2.10 % ID/g | Radioactivity uptake, Thymus, Blocking 60 min (CB2R; 3 mg/kg, 1 h): 1.77 ± 0.14 % ID/g | % control, Adrenals (CB2R; 60 min): 137 % control | % control, Bladder (CB2R; 60 min): 122 % control | % control, Blood (CB2R; 60 min): 136 % control | % control, Brain (CB2R; 60 min): 108 % control | % control, Femur (CB2R; 60 min): 106 % control | % control, Gonads (CB2R; 60 min): 86 % control | % control, Heart (CB2R; 60 min): 106 % control | % control, Kidney (CB2R; 60 min): 124 % control | % control, L. intestine (CB2R; 60 min): 96 % control | % control, Liver (CB2R; 60 min): 168 % control | % control, Lung (CB2R; 60 min): 92 % control | % control, Muscle (CB2R; 60 min): 99 % control | % control, Pancreas (CB2R; 60 min): 125 % control | % control, Plasma (CB2R; 60 min): 111 % control | % control, S. intestine (CB2R; 60 min): 109 % control | % control, Spleen (CB2R; 60 min): 110 % control | % control, Stomach (CB2R; 60 min): 146 % control | % control, Thymus (CB2R; 60 min): 171 % control | Percentage of total activity in brain samples, 30 min p.i. ([3]; brain homogenate extract, 30 min p.i. of [18F]1 or [18F]2, radio-HPLC): 88% | Percentage of total activity in brain samples, 60 min p.i. ([3]; brain homogenate extract, 60 min p.i. of [18F]1 or [18F]2, radio-HPLC): 43% | Relative percentage of intact tracer and radiometabolites, Plasma 30 min p.i. ([3]; plasma, 30 min p.i. of [18F]1 or [18F]2, radio-HPLC): 2% | Relative percentage of intact tracer and radiometabolites, Plasma 60 min p.i. ([3]; plasma, 60 min p.i. of [18F]1 or [18F]2, radio-HPLC): 2%
